In patent publication US9925193B2, “Thioether derivatives as protein kinase inhibitors” (KTB TUMORFORSCHUNGSGESELLSCHAFT MBH, priority 2012, dated 2018) one finds IC50 and melting point data, which are given here for ten compounds.

In data set [1] the target is T1, ALK (Homo sapiens, UniProt Q9UM73).
T1 construct: made in house; host or cells: Sf9 insect cells (baculovirus)
The data set can be described thus: 33PanQinase Activity Assay, ALK. The format is biochemical. Conditions: recombinant human protein kinase, 1 μM [γ-33P]-ATP, 30° C. 80 minutes. On the procedure:
(§1) The effect of the thioether derivatives 8a-v and 9a-i was tested on recombinant, human protein kinases. All protein kinases were expressed in Sf9 insect cells as human recombinant GST-fusion proteins or as His-tagged proteins by means of the baculovirus expression system. Protein kinases were purified by affinity chromatography using either GSH-agarose or Ni-NTH-agarose. The purity and identity of each was checked by SDS-PAGE/silver staining and by western blot analysis with specific antibodies.
(§2) A proprietary protein kinase assay (^33PanQinase® Activity Assay) was used for measuring the kinase activity. All kinase assays were performed in 96-well FlashPlates™ in a 50 μl reaction volume. The assay for all enzymes contained 60 mM HEPES-NaOH, pH 7.5, 3 mM MgCl2, 3 mM MnCl2, 3 μM Na-orthovanadate, 1.2 mM DTT, 50 μg/ml PEG20000 and 1 μM [γ-^33P]-ATP (approx. 5×10^5 cpm per well).
(§3) The reaction cocktails were incubated at 30° C. for 80 minutes. The reaction was stopped with 50 μl of 2% (v/v) H3PO4, plates were aspirated and washed two times with 200 μl of 0.9% (w/v) NaCl. Incorporation of ^33Pi was determined with a microplate scintillation counter. All assays were performed with a BeckmanCoulter/Sagian robotic system.

For data set [2], the target named is T2, AXL (Homo sapiens, UniProt P30530).
T2 construct: made in house; host or cells: Sf9 insect cells (baculovirus)
T2 sequence (P30530 26-894): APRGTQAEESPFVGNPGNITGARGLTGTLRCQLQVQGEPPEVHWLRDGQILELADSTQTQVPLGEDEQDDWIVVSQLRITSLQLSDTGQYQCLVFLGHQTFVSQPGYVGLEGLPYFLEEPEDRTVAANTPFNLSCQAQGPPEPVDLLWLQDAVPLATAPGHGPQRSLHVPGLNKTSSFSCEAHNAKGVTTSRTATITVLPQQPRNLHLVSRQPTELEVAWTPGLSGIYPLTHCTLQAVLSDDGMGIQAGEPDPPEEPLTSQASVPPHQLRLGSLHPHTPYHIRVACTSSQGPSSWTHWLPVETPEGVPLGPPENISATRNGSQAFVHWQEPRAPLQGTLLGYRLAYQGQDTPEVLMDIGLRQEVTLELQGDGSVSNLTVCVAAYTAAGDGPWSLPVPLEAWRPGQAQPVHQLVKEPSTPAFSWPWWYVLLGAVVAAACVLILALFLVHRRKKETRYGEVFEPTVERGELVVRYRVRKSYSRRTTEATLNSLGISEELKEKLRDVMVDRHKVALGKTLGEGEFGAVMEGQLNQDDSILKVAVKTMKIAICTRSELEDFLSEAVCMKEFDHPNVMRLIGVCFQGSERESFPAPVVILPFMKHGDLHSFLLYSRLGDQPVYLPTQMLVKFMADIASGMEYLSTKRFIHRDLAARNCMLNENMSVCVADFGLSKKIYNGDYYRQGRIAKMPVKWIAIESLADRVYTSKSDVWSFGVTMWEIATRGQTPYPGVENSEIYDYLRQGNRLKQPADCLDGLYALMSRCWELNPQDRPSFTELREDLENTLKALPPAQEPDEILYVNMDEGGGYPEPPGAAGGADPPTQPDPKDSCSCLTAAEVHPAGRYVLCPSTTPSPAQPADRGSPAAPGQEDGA
The data set can be described thus: 33PanQinase Activity Assay, AXL. The format is biochemical. To be noted: recombinant human protein kinase, 1 μM [γ-33P]-ATP, 30° C. 80 minutes. On the procedure:
as §1, §2, §3

For data set [3], the target named is T3, FAK (Homo sapiens, UniProt Q05397).
T3 construct: made in house; host or cells: Sf9 insect cells (baculovirus)
The data set is described as follows: 33PanQinase Activity Assay, FAK. Conditions: recombinant human protein kinase, 1 μM [γ-33P]-ATP, 30° C. 80 minutes. The format is biochemical. The method, then:
as §1, §2, §3

Data set [4] addresses T4, IGF1-R (Homo sapiens, UniProt P08069).
T4 construct: made in house; host or cells: Sf9 insect cells (baculovirus)
The data set can be described thus: 33PanQinase Activity Assay, IGF1-R. Type of data set: biochemical. To be noted: recombinant human protein kinase, 1 μM [γ-33P]-ATP, 30° C. 80 minutes. The method, then:
as §1, §2, §3

The target in data set [5] is T5, PIM1 (Homo sapiens, UniProt P11309).
T5 construct: made in house; host or cells: Sf9 insect cells (baculovirus)
The data set is described as follows: 33PanQinase Activity Assay, PIM1. Type of data set: biochemical. Conditions: recombinant human protein kinase, 1 μM [γ-33P]-ATP, 30° C. 80 minutes. On the procedure: as §1, §2, §3

In data set [6] the target is T6, SRC (Homo sapiens, UniProt P12931).
T6 construct: made in house; host or cells: Sf9 insect cells (baculovirus)
The data set is described as follows: 33PanQinase Activity Assay, SRC. The format is biochemical. Conditions: recombinant human protein kinase, 1 μM [γ-33P]-ATP, 30° C. 80 minutes. The method, then: as §1, §2, §3

Data set [7] concerns the target T7, VEGF-R2 (Homo sapiens, UniProt P35968).
T7 construct: made in house; host or cells: Sf9 insect cells (baculovirus)
The data set is described as follows: 33PanQinase Activity Assay, VEGF-R2. Type of data set: biochemical. Conditions: recombinant human protein kinase, 1 μM [γ-33P]-ATP, 30° C. 80 minutes. On the procedure:
as §1, §2, §3

The target in data set [8] is T8, PRK1 (Homo sapiens, UniProt Q16512).
T8 construct: made in house; host or cells: Sf9 insect cells (baculovirus)
The data set is described as follows: 33PanQinase Activity Assay, PRK1. To be noted: recombinant human protein kinase, 1 μM [γ-33P]-ATP, 30° C. 80 minutes. Type of data set: biochemical. The method, then:
as §1, §2, §3

Data set [9] deals with T9, KIT wt (Homo sapiens, UniProt P10721).
T9 construct: made in house; host or cells: Sf9 insect cells (baculovirus)
The data set can be described thus: 33PanQinase Activity Assay, KIT wt. To be noted: recombinant human protein kinase, 1 μM [γ-33P]-ATP, 30° C. 80 minutes. The format is biochemical. On the procedure: as §1, §2, §3

In data set [10] the target is T10, ALK, AXL, FAK, KIT wt, IGF1-R, PIM1, PRK1, SRC and VEGF-R2.
T10 construct: other: at le; fused on or other part: GST or His tag
The data set can be described thus: 33PanQinase Activity Assay, kinase panel summary. The format is biochemical, human. To be noted: at least two kinases of the panel; read-out: IC50 values on at least two kinases from at least two different molecular mechanisms of tumor progression. The method, then: as §1, §2, §3
Thioether derivatives 8a-v and 9a-i show excellent IC50 values.

T6 sequence (P12931 whole entry): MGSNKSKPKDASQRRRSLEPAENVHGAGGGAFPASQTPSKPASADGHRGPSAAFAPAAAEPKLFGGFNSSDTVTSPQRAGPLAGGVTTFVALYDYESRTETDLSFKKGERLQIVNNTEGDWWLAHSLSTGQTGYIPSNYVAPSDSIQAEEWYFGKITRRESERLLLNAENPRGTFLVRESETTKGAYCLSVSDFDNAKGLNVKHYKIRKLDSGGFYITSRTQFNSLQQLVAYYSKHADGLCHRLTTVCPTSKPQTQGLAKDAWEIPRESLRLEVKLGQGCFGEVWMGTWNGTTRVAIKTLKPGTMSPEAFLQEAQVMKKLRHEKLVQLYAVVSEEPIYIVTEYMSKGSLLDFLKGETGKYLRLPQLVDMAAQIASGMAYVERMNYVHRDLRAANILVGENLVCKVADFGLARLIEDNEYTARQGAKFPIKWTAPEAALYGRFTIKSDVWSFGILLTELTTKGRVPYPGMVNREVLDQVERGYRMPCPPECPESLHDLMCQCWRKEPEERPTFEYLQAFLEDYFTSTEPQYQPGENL
T1 sequence (Q9UM73 19-1620): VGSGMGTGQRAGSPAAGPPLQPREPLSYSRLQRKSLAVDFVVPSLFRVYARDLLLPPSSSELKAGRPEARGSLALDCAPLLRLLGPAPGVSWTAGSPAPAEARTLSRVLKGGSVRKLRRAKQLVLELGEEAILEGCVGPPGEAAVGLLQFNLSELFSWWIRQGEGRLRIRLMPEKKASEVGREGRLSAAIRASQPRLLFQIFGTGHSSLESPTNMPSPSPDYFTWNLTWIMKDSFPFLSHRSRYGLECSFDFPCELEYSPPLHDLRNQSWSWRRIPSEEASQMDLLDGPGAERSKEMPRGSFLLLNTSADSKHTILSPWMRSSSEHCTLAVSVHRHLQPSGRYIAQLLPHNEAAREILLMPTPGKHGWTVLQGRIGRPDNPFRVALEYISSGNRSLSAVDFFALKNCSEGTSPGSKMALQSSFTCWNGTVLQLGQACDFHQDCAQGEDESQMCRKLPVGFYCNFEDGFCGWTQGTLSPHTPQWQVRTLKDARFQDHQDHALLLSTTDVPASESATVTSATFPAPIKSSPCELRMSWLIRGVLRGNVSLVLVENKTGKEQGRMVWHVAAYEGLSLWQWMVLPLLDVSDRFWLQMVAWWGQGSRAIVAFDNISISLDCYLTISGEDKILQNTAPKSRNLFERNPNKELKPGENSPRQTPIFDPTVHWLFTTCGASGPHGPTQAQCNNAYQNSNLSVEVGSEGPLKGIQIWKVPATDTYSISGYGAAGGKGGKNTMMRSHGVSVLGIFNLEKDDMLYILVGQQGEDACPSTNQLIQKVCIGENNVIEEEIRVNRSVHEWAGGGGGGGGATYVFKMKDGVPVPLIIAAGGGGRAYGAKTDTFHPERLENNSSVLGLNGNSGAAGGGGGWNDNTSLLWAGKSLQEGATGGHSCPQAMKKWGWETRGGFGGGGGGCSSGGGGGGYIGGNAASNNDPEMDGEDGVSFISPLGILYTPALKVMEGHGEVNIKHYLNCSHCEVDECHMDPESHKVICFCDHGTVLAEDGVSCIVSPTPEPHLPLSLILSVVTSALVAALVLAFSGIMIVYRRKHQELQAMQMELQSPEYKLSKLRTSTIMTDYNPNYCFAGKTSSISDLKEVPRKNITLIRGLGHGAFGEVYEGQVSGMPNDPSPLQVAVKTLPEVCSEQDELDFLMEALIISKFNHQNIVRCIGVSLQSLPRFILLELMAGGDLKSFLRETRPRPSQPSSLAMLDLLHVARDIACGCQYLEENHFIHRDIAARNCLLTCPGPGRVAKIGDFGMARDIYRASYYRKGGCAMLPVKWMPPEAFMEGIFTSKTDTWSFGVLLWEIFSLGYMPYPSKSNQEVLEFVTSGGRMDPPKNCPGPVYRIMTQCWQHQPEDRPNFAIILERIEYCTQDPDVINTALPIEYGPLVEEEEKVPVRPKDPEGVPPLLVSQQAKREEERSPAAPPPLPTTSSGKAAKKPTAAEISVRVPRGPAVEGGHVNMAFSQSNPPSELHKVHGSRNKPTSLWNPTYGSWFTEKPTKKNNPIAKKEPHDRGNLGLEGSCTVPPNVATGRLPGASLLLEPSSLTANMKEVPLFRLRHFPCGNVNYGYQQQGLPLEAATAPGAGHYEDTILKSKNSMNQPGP
T7 sequence (P35968 20-1356): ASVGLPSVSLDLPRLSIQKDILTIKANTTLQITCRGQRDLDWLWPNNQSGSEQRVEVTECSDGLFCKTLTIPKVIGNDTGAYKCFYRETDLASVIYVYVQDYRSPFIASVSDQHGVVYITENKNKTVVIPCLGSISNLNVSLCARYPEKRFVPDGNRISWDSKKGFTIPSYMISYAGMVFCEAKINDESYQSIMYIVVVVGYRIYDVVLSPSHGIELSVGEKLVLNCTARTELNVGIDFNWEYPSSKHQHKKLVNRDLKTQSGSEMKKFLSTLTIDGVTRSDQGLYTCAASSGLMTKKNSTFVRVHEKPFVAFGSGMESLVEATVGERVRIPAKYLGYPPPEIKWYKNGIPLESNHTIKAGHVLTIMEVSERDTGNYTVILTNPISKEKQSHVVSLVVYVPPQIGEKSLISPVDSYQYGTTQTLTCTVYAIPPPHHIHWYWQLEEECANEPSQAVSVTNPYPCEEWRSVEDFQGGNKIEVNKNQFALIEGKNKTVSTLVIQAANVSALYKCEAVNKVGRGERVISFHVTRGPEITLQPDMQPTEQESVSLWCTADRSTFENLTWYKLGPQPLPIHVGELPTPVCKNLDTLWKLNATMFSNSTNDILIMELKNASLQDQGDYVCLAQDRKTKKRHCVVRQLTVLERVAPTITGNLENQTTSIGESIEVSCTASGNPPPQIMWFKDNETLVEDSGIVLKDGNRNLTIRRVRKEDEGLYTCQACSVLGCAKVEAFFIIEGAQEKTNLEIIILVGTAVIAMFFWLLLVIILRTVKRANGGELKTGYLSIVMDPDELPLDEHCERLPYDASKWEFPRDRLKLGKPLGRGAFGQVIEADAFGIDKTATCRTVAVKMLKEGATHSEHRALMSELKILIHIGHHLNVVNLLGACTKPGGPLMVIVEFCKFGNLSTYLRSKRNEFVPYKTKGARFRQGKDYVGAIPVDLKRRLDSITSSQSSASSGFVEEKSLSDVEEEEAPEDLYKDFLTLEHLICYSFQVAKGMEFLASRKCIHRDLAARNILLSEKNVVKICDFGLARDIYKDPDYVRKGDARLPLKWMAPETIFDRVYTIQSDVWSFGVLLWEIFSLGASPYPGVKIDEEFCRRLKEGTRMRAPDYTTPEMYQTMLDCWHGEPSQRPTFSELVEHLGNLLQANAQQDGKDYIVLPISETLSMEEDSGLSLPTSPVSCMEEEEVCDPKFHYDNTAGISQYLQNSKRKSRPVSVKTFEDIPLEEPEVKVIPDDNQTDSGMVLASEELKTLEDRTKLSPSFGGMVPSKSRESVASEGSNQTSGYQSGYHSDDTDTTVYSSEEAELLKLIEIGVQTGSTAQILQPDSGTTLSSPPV
T8 sequence (Q16512 whole entry): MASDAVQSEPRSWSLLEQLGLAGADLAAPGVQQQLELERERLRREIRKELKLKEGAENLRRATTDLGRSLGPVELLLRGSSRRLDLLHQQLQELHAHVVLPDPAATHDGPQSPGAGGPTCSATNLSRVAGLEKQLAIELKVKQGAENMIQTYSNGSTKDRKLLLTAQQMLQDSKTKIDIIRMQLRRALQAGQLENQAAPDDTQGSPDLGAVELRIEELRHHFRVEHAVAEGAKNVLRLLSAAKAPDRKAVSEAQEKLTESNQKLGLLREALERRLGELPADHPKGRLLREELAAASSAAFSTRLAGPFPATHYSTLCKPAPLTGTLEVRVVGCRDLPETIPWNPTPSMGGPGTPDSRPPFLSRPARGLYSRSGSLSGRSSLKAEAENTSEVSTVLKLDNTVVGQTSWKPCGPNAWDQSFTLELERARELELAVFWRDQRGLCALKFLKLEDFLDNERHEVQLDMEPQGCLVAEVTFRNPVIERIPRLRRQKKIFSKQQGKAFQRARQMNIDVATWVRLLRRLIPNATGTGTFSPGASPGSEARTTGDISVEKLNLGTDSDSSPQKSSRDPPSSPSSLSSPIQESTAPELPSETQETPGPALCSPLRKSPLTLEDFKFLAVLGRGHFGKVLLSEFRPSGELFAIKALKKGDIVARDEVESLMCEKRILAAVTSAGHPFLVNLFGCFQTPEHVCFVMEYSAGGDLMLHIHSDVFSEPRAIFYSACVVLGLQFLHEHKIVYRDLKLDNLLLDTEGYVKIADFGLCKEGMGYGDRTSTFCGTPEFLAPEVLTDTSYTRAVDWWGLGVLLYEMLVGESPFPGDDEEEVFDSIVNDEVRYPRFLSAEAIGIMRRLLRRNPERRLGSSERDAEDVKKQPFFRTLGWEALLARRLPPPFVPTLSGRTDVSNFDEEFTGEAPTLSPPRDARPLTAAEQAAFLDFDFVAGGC
T5 sequence (P11309 whole entry): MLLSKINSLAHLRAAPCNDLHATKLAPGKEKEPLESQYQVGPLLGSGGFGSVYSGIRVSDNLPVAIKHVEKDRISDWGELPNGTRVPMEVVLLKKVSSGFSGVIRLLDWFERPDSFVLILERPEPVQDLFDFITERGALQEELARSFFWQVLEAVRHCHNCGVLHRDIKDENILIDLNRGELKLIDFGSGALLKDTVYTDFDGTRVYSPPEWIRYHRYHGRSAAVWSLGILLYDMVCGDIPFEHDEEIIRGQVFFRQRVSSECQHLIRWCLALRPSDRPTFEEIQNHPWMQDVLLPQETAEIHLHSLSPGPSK

`CC(C)(C)c1nnc(Sc2ncnc3cc(-c4ccc(F)cc4)sc23)o1` [Compound 8g, 2-(tert-Butyl)-5-{[6-(4-fluorophenyl)thieno[3,2-d]pyrimidin-4-yl]thio}-1,3,4-oxadiazole] yielded a melting point of 197 to 199 °C. The IC50 in data set [1] was found to be 2.37 µM. Moreover, the IC50 in data set [2] stood at 6.19 µM. Moreover, in [3], the IC50 was 4.82 µM. Further, in data set [4], the IC50 stood at 3.28 µM. Also, the IC50 in data set [5] stood at 22.9 µM. Further, the IC50 in [6] was found to be 2.51 µM. In [7], the IC50 turned out to be 4.07 µM.
For the compound `O=S1(=O)CCC(Cc2nnc(Sc3ncnc4cc(-c5ccc(F)cc5)sc34)o2)C1` (stereo not drawn) [Compound 8k, 3-{[5-({6-[4-Fluorophenyl]thieno[3,2-d]pyrimidin-4-yl}thio)-1,3,4-oxadiazol-2-yl]methyl}-tetrahydrothiophene-1,1-dioxide], the melting point lay in the range of 180 to 182 °C. In [1], the IC50 came to 2.95 µM. The IC50 in data set [2] stood at 4.58 µM. Also, the IC50 in [3] came out at 5.76 µM. In data set [4], the IC50 is 7.65 µM. In addition, the IC50 in [5] was 26.3 µM. Further, in data set [6], the IC50 turned out to be 2.62 µM. In addition, the IC50 in data set [7] turned out to be 2.05 µM.
In turn, `Fc1ccc(-c2cc3ncnc(Sc4ccccn4)c3s2)cc1` [Compound 8j, 6-(4-Fluorophenyl)-4-(pyridin-2-ylthio)thieno[3,2-d]pyrimidine] had a melting point of 172 to 174 °C. Also, in data set [1], the IC50 came out at 6.63 µM. Also, the IC50 in [2] stood at 22.6 µM. In [3], the IC50 came to 9.08 µM. Moreover, the IC50 in data set [4] is 9.15 µM. In addition, the IC50 in [8] is 47.3 µM. Further, in data set [6], the IC50 is 6.35 µM. Further, the IC50 in data set [7] was found to be 9.69 µM.
`CN(C)Cc1nnc(Sc2ncnc3cc(-c4ccc(F)cc4)sc23)o1` [Compound 8c, 1-{5-[(6-{4-Fluorophenyl}thieno[3,2-d]pyrimidin-4-yl)thio]-1,3,4-oxadiazol-2-yl}-N,N-dimethylmethanamine] gave a melting point of 170 to 172 °C. In [1], the half-maximal inhibitory concentration (IC50) was 6.54 µM. For the same compound, the half-inhibitory concentration (IC50) in [2] came to 12.3 µM. The IC50 in data set [9] worked out at 2.76 µM.
Consider `COc1cccc(Cc2nnc(Sc3ncnc4cc(-c5ccc(F)cc5)sc34)o2)c1` [Compound 8f, 2-{[6-(4-Fluorophenyl)thieno[3,2-d]pyrimidin-4-yl]thio}-5-(3-methoxybenzyl)-1,3,4-oxadiazole], for which the melting point lay within 166 to 168 °C. For the same compound, in data set [1], the IC50 amounted to 0.651 µM. For the same compound, the half-inhibitory concentration (IC50) in data set [2] was found to be 3.2 µM. Also, in [3], the IC50 is 1.28 µM. Besides, the IC50 in data set [4] came out at 1.27 µM. In addition, in data set [5], the IC50 amounted to 10.4 µM. The IC50 in data set [8] came out at 14.6 µM. For the same compound, in [6], the IC50 worked out at 0.487 µM. For the same compound, in data set [7], the IC50 was determined as 1.47 µM.
On to `Fc1ccc(-c2cc3ncnc(Sc4nnc(Cc5ccccc5)o4)c3s2)cc1` [Compound 8l, 2-Benzyl-5-{[6-(4-fluorophenyl)thieno[3,2-d]pyrimidin-4-yl]thio}-1,3,4-oxadiazole], for which the IC50 in [1] was 1.15 µM; in data set [2], 3.14 µM; in data set [3], 3.01 µM; in data set [4], 1.5 µM; in data set [5], 13.7 µM; in data set [8], 38 µM. Besides, the values for the IC50 in [6] and in [7] were 0.875 µM and 2.24 µM, respectively.
On to `Fc1ccc(-c2cc3ncnc(Sc4ccc(C(F)(F)F)cc4)c3s2)cc1` [Compound 8h, 6-(4-Fluorophenyl)-4-{[4-(trifluoromethyl)phenyl]thio}thieno[3,2-d]pyrimidine], for which the melting point is 172 to 175 °C. Besides, in [1], the IC50 came to 1.03 µM. For the same compound, the IC50 in data set [2] was 2.94 µM. Besides, the IC50 in [3] is 2.04 µM. The IC50 in [4] stood at 1.37 µM. The IC50 in data set [5] worked out at 11.3 µM. The IC50 in [8] worked out at 33.9 µM. Also, in [6], the IC50 amounted to 0.681 µM. Further, the IC50 in [7] was found to be 1.84 µM.
In the case of `Fc1ccc(-c2cc3ncnc(Sc4nnc(-c5ccc(C(F)(F)F)cc5)o4)c3s2)cc1` [Compound 8e, 2-{[6-(4-Fluorophenyl)thieno[3,2-d]pyrimidin-4-yl]thio}-5-[4-(trifluoromethyl)-phenyl]-1,3,4-oxadiazole], the melting point was in the range of 233 to 235 °C. The IC50 in data set [1] is 0.977 µM. Further, in [2], the IC50 was 2.51 µM. Further, the IC50 in data set [3] worked out at 1.96 µM. Further, the IC50 in data set [4] came out at 1.03 µM. For the same compound, the IC50 in data set [5] came out at 8.68 µM. For the same compound, the IC50 in data set [8] was 15.4 µM. In addition, in data set [6], the half-inhibitory concentration (IC50) came to 0.54 µM. The IC50 in [7] came to 1.41 µM.
As for `FC(F)(F)c1ccc(-c2nnc(Sc3ncnc4[nH]c(-c5ccccc5)nc34)o2)cc1` [Compound 8v, 2-[(8-Phenyl-9H-purin-6-yl)thio]-5-[4-(trifluoromethyl)phenyl]-1,3,4-oxadiazole], the melting point was 256 to 257 °C. The IC50 in data set [1] came out at 0.86 µM. In data set [2], the half-maximal inhibitory concentration (IC50) is more than 100 µM. For the same compound, the IC50 in data set [3] was determined as 0.93 µM. Further, the IC50 in data set [6] is 0.7 µM. Moreover, the IC50 in [10] is less than 10 µM.
`Fc1ccc(-c2cc3ncnc(Sc4ncc[nH]4)c3s2)cc1` [Compound 8i, 4-[(1H-imidazol-2-yl)thio]-6-(4-fluorophenyl)thieno[3,2-d]pyrimidine] returned a melting point of 204 to 206 °C. In addition, the IC50 in data set [1] worked out at 23.7 µM. The IC50 in [2] worked out at 41.5 µM. Further, in [3], the IC50 was 22.1 µM. In data set [4], the IC50 amounted to 23.1 µM. For the same compound, the IC50 in data set [5] worked out at 11.1 µM. Further, the IC50 in data set [8] came to 86.1 µM. Further, the IC50 in data set [6] was determined as 11 µM. The IC50 in data set [7] worked out at 20.8 µM.
